Measurements: patent US4933336A, “Thiadiazinone, oxadiazinone and triazinone derivatives, and their use for treating acute or chronic heart disease” (Laboratoires Sobio S.A., priority 1987, dated 1990)
Like-named read-outs stand apart in the source and are kept apart here.

What was measured:
[1] = tested on: conscious instrumented Dog; assay: Cardiotonic activity in the conscious instrumented Dog; assay type: in vivo, dog (male Beagle); conditions: Canis lupus familiaris, po; for change in vivo at 0.3 mg/kg: 0.30 mg/kg p.o.; for change in vivo at 3 mg/kg: 3.00 mg/kg p.o.; for change in vivo at 1 mg/kg: 1.00 mg/kg p.o.; for change in vivo at 0.1 mg/kg: 0.10 mg/kg p.o.
Description: Cardiotonic activity in the conscious instrumented Dog
Male Beagle dogs, at least 2 years old, weighing 12 to 18 kg were anaesthetised with pentobarbital sodium (30 mg/kg i.v.). Respiration was maintained by a Harward pump, model 613a. The heart was exposed through a left thoracotomy and a pericardial cardle was formed. A high fidelity micromanometer (Koenigsberg P5 -P7) was inserted into left venitricular lumen through a stab incision at the apex. Wires were exteriorised to the back of the animals, placed into a size adapted jacket, and the chest closed. The experiments were conducted on the conscious dogs, 1 or 2 weeks after the surgery, when the animals had completely recovered.
Measured parameters were : first derivative of left ventricular pressure, (dP/dt, mmHg/sec); heart rate (HR, beats/min.). A control period recording of 90 min. was made with the dogs placed in a quiet room, the recordings being made outside. Compounds to be tested were administered orally in gelatin capsules and the parameters measured for 5 hrs. at least.
Results were expressed as the percentage of the maximum±SEM.

[2] = tested on: Canine cardiac myofibrillar Ca++-dependent Mg++ ATPase; assay: Measurement of myofibrillar Ca++-dependent Mg++ATPase activity (Ca++ sensitivity and maximal activity); assay type: biochemical, canine (dog); conditions: pH 7.0, 21° C.
Description: 1. Measurement of myofibrillar Ca++-dependent Mg++ATPase activity
the effect on myofibrillar Ca++sensitivity and on maximal activity of myofibrillar Ca++-dependent Mg++-ATPase was determined on canine cardiac myofibrils.
(a) Contractile protein preparation
Cardiac myofibrils free of membrane contaminants were prepared from left ventricular tissue of dog hearts using a modification of the method described by SOLARO et al, Biochem. Biophys. Acta, 245, 259-262, (1971). Before centrifugration, the heart homogenate was filtered through gauze.
After Triton X-100 treatments, the myofibrillar fraction was washed once by resuspension and centrifugation in 10 volumes of 1 mM EGTA, […], 30 mM imidazole, 2 mM MgCl2, pH 7.0. The pellet was then washed three times in 10 volumes of the same buffer without EGTA. Before the last centrifugation, the suspension of myofibrils was filtered through a stainless steel sieve with 0.25 mm meshes.
Myofibrils were kept in pellet overnight. Before use, the pellet was suspended in a small amount of buffer, the protein concentration was determined by the method of BRADFORD M., Anal. Biochem., 1976, 72, 248 and adjusted in order to have a concentration between 6 and 7 mg/ml.
(b) Myofibrillar ATPase activity
Ca++-dependent myfibrillar ATPase activity was determined at 21° C., pH 7.0, by measuring the rate of release of inorganic phosphate. All assays were performed within 24 hrs. of final purification, using the method described by SOLARO and RUEGG, CIRC. RES., 51, 290-4, (1982). Reaction mixtures (4 ml) containing 0.6-0.7 mg/ml myofibrillar protein, 80 mM KCl, 20 mM imidazole, 3 mM […], 1 mM EGTA, the desired amount of CaCl2, and the indicated concentration of drug or appropriate vehicle were preincubated for 6 min. prior to assay. The amount of CaCl2 was varied between 0 and 0.9 mM and the pCA (-log free Ca++) computed using 2.514×10^6 M^-1 as the apparent affinity of Ca++for EGTA at pH 7.0.
Reactions were initiated by the addition of Na2 ATP to final concentration of 2 mM. After an incubation period of 12 min., reactions were quenched by the addition of an equal volume of ice-cold 10% trichloroacetic acid. The protein was pelleted by centrifugation (2000 g, 15 min.) and Pi was assayed in the supernatant fraction using a modification of the method described by LANZETTA et al, Anal. Biochem., 100, 95-97, (1979).
The following solutions were prepared:
(1) 3.7% ammonium heptamolybdate in 0.12N H2 SO4
(2) 0.074% malachite green oxalate in 1% polyvinylic alcohol.
the colour reagent was prepared by mixing an equal volume of solution (1) and (2) 15 min. before the assay. For the assay, 1700 μl of 1% H2 SO4 and 1 ml of colour reagent were added to 100 μl of sample. Colour development occurred at room temperature for 30 min. and was quenched by the addition of 200 μl of 1M tri-potassium citrate. The absorbance was measured at 620 millimicrons.
The effect of each compound, tested at the indicated concentration, on the relation between pCa and percent activation was determined taking 100% for the maximum ATPase activity obtained with vehicle alone. The effect on Ca++ sensitivity was quantified by measuring the shift of the pCa giving 50% of the maximal control ATPase activity.
The effect on maximal ATPase activity was expressed as the percent change of ATPase activity for pCa=5.47.

[3] = read-out: H.R. (heart rate), percentage of the maximum ± SEM
[4] = read-out: dP/dt Max (first derivative of left ventricular pressure), percentage of the maximum ± SEM

Compound	Max ATPase activity (%) (percent change of ATPase activity for pCa=5.47) ([2]; 3 × 10^-5 molar)	Ca2+ sensitivity p CA50 (shift of the pCa giving 50% of the maximal control ATPase activity) ([2]; 3 × 10^-5 molar)	change in vivo at 0.3 mg/kg [1, 3] [%]	change in vivo at 0.3 mg/kg [1, 4] [%]	further results
CC1SC(=O)NN=C1c1ccc2c(c1)C1(SCCS1)C(=O)N2 (stereo not drawn) [Example 13, 5'-(3,6-Dihydro-6-methyl-2-oxo-2H-1,3,4 thiadiazin-5-yl) -spiro 1,3-dithiolane-2,3'-3H indol-2(1'H)-one]	-11 ± 5%	0.58 ± 0.04	15	43	
CC1SC(=O)NN=C1c1ccc2c(c1)C1(SCCCS1)C(=O)N2 (stereo not drawn) [Example 14, 5'-(3,6-Dihydro-6-methyl-2-oxo-2H-1,3,4-thiadiazin-5-yl) -spiro[1,3-dithiane-2,3'-[3H]indol]-2(1'H)-one]	+4 ± 1%	0.71 ± 0.09	22	30	
CC1SC(=O)NN=C1c1ccc2c(c1)C1(CCCCC1)C(=O)N2 (stereo not drawn) [Example 17]	-17 ± 4%	0.41 ± 0.07			change in vivo at 3 mg/kg [1, 3]: 9%; change in vivo at 3 mg/kg [1, 4]: 40%
CC1SC(=O)NN=C1c1ccc2c(c1)C(C)(C)C(=O)N2C (stereo not drawn) [Example 18, 1,3-Dihydro-5-(3,6-dihydro-6-methyl-2-oxo-2H-1,3,4-thiadiazin-5-yl)-1,3,3-trimethyl-2H-indol-2-one]	+3 ± 3%	0.19 ± 0.03	28	74	
CC1SC(=O)NN=C1c1ccc2c(c1)C1(CCCS1)C(=O)N2 (stereo not drawn) [Example 21, 5'-(3,6-Dihydro-6-methyl-2-oxo-2H-1,3,4-thiadiazin-5-yl) -spiro-[thiolane-2,3'-[3H]-indol]-2'(1'H)-one]			9	42	Max ATPase activity (%) (percent change of ATPase activity for pCa=5.47) ([2]; 1 × 10^-5 molar): -7 ± 2%; Ca2+ sensitivity p CA50 (shift of the pCa giving 50% of the maximal control ATPase activity) ([2]; 1 × 10^-5 molar): 0.46 ± 0.04

Now from value to compound, other results behind:

Max ATPase activity (%) (percent change of ATPase activity for pCa=5.47) ([2]; 3 × 10^-5 molar)	Ca2+ sensitivity p CA50 (shift of the pCa giving 50% of the maximal control ATPase activity) ([2]; 3 × 10^-5 molar)	Compound	change in vivo at 0.3 mg/kg [1, 3] [%]	change in vivo at 0.3 mg/kg [1, 4] [%]	further results
-5 ± 3%	0.21 ± 0.05	O=C1NN=C(c2ccc3c(c2)C2(CCCS2)C(=O)N3)CS1 (stereo not drawn) [Example 20, 5'-(3,6-Dihydro-2-oxo-2H-1,3,4-thiadiazin-5-yl)-spiro [thiolane-2,3'-[3H]-indol]-2'(1'H)-one]			change in vivo at 3 mg/kg [1, 3]: 8%; change in vivo at 3 mg/kg [1, 4]: 45%
+2 ± 5%	0.47 ± 0.10	CC1SC(=O)NN=C1c1ccc2c(c1)C1(CCCC1)C(=O)N2C(=O)c1ccncc1 (stereo not drawn) [Example 27, 5'-(3 6-Dihydro-6-methyl-2-oxo-2H-1,3,4-thiadiazin-5-yl)-1'-[(4 pyridyl)carbonyl]-spiro[cyclopentane-1,3'-[3H]indol]-2'(1'H)-one]			change in vivo at 1 mg/kg [1, 3]: 15%; change in vivo at 1 mg/kg [1, 4]: 63%
-1 ± 2%	0.45 ± 0.05	CC1SC(=O)NN=C1c1ccc2c(c1)C(C)(C)CC(=O)N2 (stereo not drawn) [Example 35, 3,4-Dihydro-6-(3,6-dihydro-6-methyl-2-oxo-2H-1,3,4-thiadiazin-5-yl)-4,4-dimethyl-2(1H)-quinolinone]			change in vivo at 0.1 mg/kg [1, 3]: 20%; change in vivo at 0.1 mg/kg [1, 4]: 49%
-4 ± 3%	0.33 ± 0.07	CC1SC(=O)NN=C1c1ccc2c(c1)CC(C)(C)C(=O)N2 (stereo not drawn) [Example 36, 3,4-Dihydro-6-(3,6-dihydro-6-methyl-2-oxo-2H-1,3,4-thiadiazin-5-yl)-3,3-dimethyl-2(1H)-quinolinone]			change in vivo at 0.1 mg/kg [1, 3]: 7%; change in vivo at 0.1 mg/kg [1, 4]: 46%
